Experimental data reported in PMC7767381, “Exploring the Anti-Cancer Mechanism of Novel 3,4′-Substituted Diaryl Guanidinium Derivatives” (Pharmaceuticals, 2020).

System: HKH-2 cells
Experiment: alamarBlue cell viability assay, HKH-2
Format: cell-based
Details: Homo sapiens, 72 h, mutated KRas disrupted, read-out: HKH-2 IC50 ± SEM
Excerpt: Cell viability and proliferation assays were used to evaluate the in vitro cytotoxicity of all synthesised compounds in a variety of different cancer cell lines using the alamarBlue® viability assay and the results are presented in Table 1 and Table 2. The sensitivity of cancer cells to drugs can often be compromised by PIK3CA, Ras and BRAF mutations. To determine whether such mutations are critical to the efficacy of our new compounds we tested them in a range of cancerous cell lines expressing different mutations. Firstly, we used the HL-60 (human promyelocytic leukaemia, NRas mutated) cell line for general cytotoxicity screening of all compounds. […] Lastly, toxicity against MCF-10A, which is a non-tumorigenic epithelial cell line, was also assessed for one of the most promising compounds (4). The graphs representing the viability results with the HL-60, MCF-7, HeLa, HCT-116, and HKH-2 cancer cell lines for compound 1 and derivatives 2, 3, and 4 are shown in Figures S7–S10 (ESI).
Cells were counted and seeded in 96-well plates at a density of 2 × 10^5 cells/mL for HL-60, 2.5 × 10^4 cells/mL for MCF-7, MCF10A and HeLa, 1 × 10^5 cells/mL for HCT116 and HKH-2, all of them in their respective media. The 96-well plates were then treated with a 1:100 dilution of stock concentrations of drugs or EtOH (1% v/v)/DMSO (0.1% v/v) as vehicle control in triplicate. Three blank wells containing 200 µL RPMI with no cells were also set-up as blanks. After a 72 h incubation, 20 µL of alamarBlue was added to each well. The plates were incubated in darkness at 37 °C for 4–5 h using a Molecular Devices microplate reader, the fluorescence (F) was then read at an excitation wavelength of 544 nm and an emission wavelength of 590 nm. Cell viability was then determined by subtracting the mean blank fluorescence (Fb) from the treated sample fluorescence (Fs) and expressing this as a percentage of the fluorescence of the blanked vehicle control (Fc). […] The results were then plotted as a nonlinear regression, sigmoidal dose-response curves on Prism, from which the IC50 value for each drug was determined.
The MCF-7 (human breast tumour) cell line was obtained from Prof. Mary Meegan, School of Pharmacy, TCD. It was maintained in Roswell Park Memorial Institute (RPMI) 1640 medium with stable glutamate (GlutaMax I) supplemented with 10% (v/v) fetal bovine serum (FBS), 1% (v/v) penicillin/ streptomycin (pen-strep) and 2 mM L-glutamine.
The HeLa (human epitheloid cervix carcinoma) cell line was obtained from Prof. Thorfinnur Gunnlaugsson, School of Chemistry TCD. It was maintainedin Dulbecco's Modified Eagle's Medium (DMEM) supplemented with 10% (v/v) fetal bovine serum (FBS) and 1%(v/v) penicillin/ streptomycin (pen-strep).
The HCT116and HKH-2 (human colon cancer cells) cell lines were obtained from Prof. James Murray, School of Biochemistry and Immunology TCD. They were maintainedin Dulbecco's Modified Eagle's Medium (DMEM) supplemented with 10% (v/v) fetal bovine serum (FBS), 1% (v/v) penicillin/ streptomycin (pen-strep), 1% (v/v) sodium pyruvate (NaPyr), 1% (v/v) L-glutamine (L-Glu) and, only for HKH-2, 0.6 mg/mL geneticine (G418).
MCF-10A (human breast epithelial) cell line was obtained from Prof. Mary Meegan, School of Pharmacy, TCD. […]
Cells were counted and seeded in 96 well plates at a density of 2 × 10^5 cells/mL for HL-60, 2.5× 10^4 cells/mL for MCF-7, MCF10A and HeLa, 1 × 10^5 cells/mL for HCT116 and HKH-2, all of them in their respective media. […]

Compound	IC50 [µM]
Cl.Cl.N=C(N)Nc1ccc(Oc2cccc(NC(=N)Nc3ccc(Cl)c(C(F)(F)F)c3)c2)cn1 [Compound 2, 1-(4-Chloro-3-(trifluoromethyl)phenyl)-3-(3-((6-guanidinopyridin-3-yl)oxy)phenyl) guanidine dihydrochloride]	8.09 ± 0.78
Cl.N=C(N)Nc1ccc(Oc2cccc(Nc3ccc(Cl)c(C(F)(F)F)c3)c2)cc1 [Compound 3, 1-(4-(3-((4-Chloro-3-(trifluoromethyl)phenyl)amino)phenoxy)phenyl)guanidine hydrochloride]	10.3 ± 0.74
Cl.N=C(N)Nc1ccc(Oc2cccc(Nc3ccc(Cl)c(C(F)(F)F)c3)c2)cn1 [Compound 4, 1-(5-(3-((4-Chloro-3-(trifluoromethyl)phenyl)amino)phenoxy)pyridin-2-yl)guanidine hydrochloride]	2.88 ± 0.15
